According to patent US11066414B2, “Cot modulators and methods of use thereof” (Gilead Sciences, Inc., priority 2015, dated 2021):
Read-outs that look alike come from different tables or passages of the source.

Tests used:
TNFα = assay: Cot Monocyte TNFα Cell Based Assay
Human Cot = Human Cot (Homo sapiens (Human), UniProt P41279); assay: High Throughput Cot Biochemical Assay; conditions: Cot HTRF (TR-FRET) biochemical assay
[1] = Homo sapiens, Monocyte, read-out: EC50 TNF, LPS-stimulated human monocytes, TNFα
[2] = read-out: EC50 TNF, LPS-stimulated human monocytes, TNFα

Sequence of Human Cot (P41279 30-397): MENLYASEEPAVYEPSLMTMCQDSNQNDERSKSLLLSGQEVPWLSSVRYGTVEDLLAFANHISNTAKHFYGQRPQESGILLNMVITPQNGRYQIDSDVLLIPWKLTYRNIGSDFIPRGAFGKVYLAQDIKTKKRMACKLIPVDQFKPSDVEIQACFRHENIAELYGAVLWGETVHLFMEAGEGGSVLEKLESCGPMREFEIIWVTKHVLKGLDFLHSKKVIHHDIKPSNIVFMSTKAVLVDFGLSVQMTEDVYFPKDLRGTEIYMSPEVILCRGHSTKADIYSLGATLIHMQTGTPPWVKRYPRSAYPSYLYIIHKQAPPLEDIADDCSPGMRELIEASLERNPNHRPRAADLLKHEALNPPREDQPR

Row | Structure (SMILES) | EC50 (TNFα; [1]) [nM] | IC50 (Human Cot; IC50 HTRF) [nM] | EC50 (TNFα; [2]) [nM] | IC50 (Human Cot; read-out: IC50 HTRF) [nM]
1 | CC(C)(C)N1CCC(n2cc([C@@H](Nc3cc(Cl)c4ncc(C#N)c(Nc5ccc(F)c(Cl)c5)c4c3)c3cscn3)nn2)CC1 [Example 353, (S)-6-(((1-(1-(tert-butyl)piperidin-4-yl)-1H-1,2,3-triazol-4-yl)(thiazol-4-yl)methyl)amino)-8-chloro-4-((3-chloro-4-fluorophenyl)amino)-quinoline-3-carbonitrile] | 184 | 4 |  | 
2 | CN(C)CCn1cc([C@@H](Nc2cc(Cl)c3ncc(C#N)c(Nc4ccc(F)c(Cl)c4)c3c2)c2cscn2)nn1 [Example 355, (S)-8-chloro-4-((3-chloro-4-fluorophenyl)amino)-6-(((1-(2-(dimethylamino)ethyl)-1H-1,2,3-triazol-4-yl)(thiazol-4-yl)methyl)-amino)quinoline-3-carbonitrile] | 194 | 5 |  | 
3 | CC(C)n1cc([C@@H](Nc2cc(Cl)c3ncc(C#N)c(Nc4ccc(F)c(Cl)c4)c3c2)c2cscn2)nn1 [Example 357, (S)-8-chloro-4-((3-chloro-4-fluorophenyl)amino)-6-(((1-isopropyl-1H-1,2,3-triazol-4-yl)(thiazol-4-yl)methyl)amino)quinoline-3-carbonitrile] | 235 | 5 |  | 
4 | COCCn1cc([C@@H](Nc2cc(Cl)c3ncc(C#N)c(Nc4ccc(F)c(Cl)c4)c3c2)c2cscn2)nn1 [Example 358, (S)-8-chloro-4-((3-chloro-4-fluorophenyl)amino)-6-(((1-(2-methoxyethyl)-1H-1,2,3-triazol-4-yl)(thiazol-4-yl)methyl)amino)-quinoline-3-carbonitrile] | 130 | 3 |  | 
5 | N#Cc1cnc2c(Cl)cc(N[C@@H](c3cscn3)c3cn(CCN)nn3)cc2c1Nc1ccc(F)c(Cl)c1 [Example 359, (S)-6-(((1-(2-arninoethyl)-1H-1,2,3-triazol-4-yl)(thiazol-4-yl)methyl)-amino)-8-chloro-4-((3-chloro-4-fluorophenyl)amino)quinoline-3-carbonitrile] |  |  | 729 | 3
6 | CN(C)CCCn1cc([C@@H](Nc2cc(Cl)c3ncc(C#N)c(Nc4ccc(F)c(Cl)c4)c3c2)c2cscn2)nn1 [Example 360, (S)-8-chloro-4-((3-chloro-4-fluorophenyl)amino)-6-(((1-(3-(dimethylamino)propyl)-1H-1,2,3-triazol-4-yl)(thiazol-4-yl)methyl)-amino)quinoline-3-carbonitrile] | 151 | 4 |  | 
7 | N#Cc1cnc2c(Cl)cc(N[C@@H](c3cscn3)c3cn(C4COC4)nn3)cc2c1Nc1ccc(F)c(Cl)c1 [Example 363, (S)-8-chloro-4-((3-chloro-4-fluorophenyl)amino)-6-(((1-(oxetan-3-yl)-1H-1,2,3-triazol-4-yl)(thiazol-4-yl)methyl)amino)quinoline-3-carbonitrile] | 257 | 4 |  | 
8 | N#CCn1cc([C@@H](Nc2cc(Cl)c3ncc(C#N)c(Nc4ccc(F)c(Cl)c4)c3c2)c2cscn2)nn1 [Example 364, (S)-8-chloro-4-((3-chloro-4-fluorophenyl)amino)-6-(((1-(cyanomethyl)-1H-1,2,3-triazol-4-yl)(thiazol-4-yl)methyl)amino)-quinoline-3-carbonitrile] | 241 | 7 |  | 
9 | CCN1CCC(n2cc(C(Nc3cc(Cl)c4ncc(C#N)c(Nc5ccc(F)c(Cl)c5)c4c3)c3cncnc3)nn2)CC1 (stereo not drawn) [Example 366, 8-chloro-4-((3-chloro-4-fluorophenyl)amino)-6-(((1-(1-ethylpiperidin-4-yl)-1H-1,2,3-triazol-4-yl)(pyrimidin-5-yl)methyl)amino)-quinoline-3-carbonitrile] | 336 | 5 |  | 
10 | CCN1CCC(n2cc([C@H](c3cccnc3)N(CC)c3cc(Cl)c4ncc(C#N)c(Nc5ccc(F)c(Cl)c5)c4c3)nn2)CC1 [Example 368, (S)-8-chloro-4-((3-chloro-4-fluorophenyl)amino)-6-(ethyl((1-(1-ethylpiperidin-4-yl)-1H-1,2,3-triazol-4-yl)(pyridin-3-yl)methyl)-amino)quinoline-3-carbonitrile] | 6300 | 649 |  | 
11 | CC(C)(C)N1CCC(n2cc([C@@H](Nc3cc(Cl)c4ncc(C#N)c(Nc5ccc(F)c(Cl)c5)c4c3)c3cncs3)nn2)CC1 [Example 370] |  |  | 232 | 8

Next, values leading:

Row | EC50 (TNFα; [1]) [nM] | IC50 (Human Cot; IC50 HTRF) [nM] | EC50 (TNFα; [2]) [nM] | IC50 (Human Cot; read-out: IC50 HTRF) [nM] | Structure (SMILES)
12 | 173 | 2 |  |  | CCN1CCC(n2cc([C@@H](Nc3cc(Cl)c4ncc(C#N)c(Nc5ccc(F)c(Cl)c5)c4c3)c3cscc3Cl)nn2)CC1 [Example 371, (S)-8-chloro-4-((3-chloro-4-fluorophenyl)amino)-6-(((4-chlorothiophen-3-yl)(1-(1-ethylpiperidin-4-yl)-1H-1,2,3-triazol-4-yl)methyl)-amino)quinoline-3-carbonitrile]
13 | 81 | 2 |  |  | CCN1CCC(n2cc([C@@H](Nc3cc(Cl)c4ncc(C#N)c(Nc5ccc(F)c(Cl)c5)c4c3)c3cc(C#N)cs3)nn2)CC1 [Example 372, (R)-8-chloro-4-((3-chloro-4-fluorophenyl)amino)-6-(((4-cyanothiophen-2-yl)(1-(1-ethylpiperidin-4-yl)-1H-1,2,3-triazol-4-yl)methyl)-amino)quinoline-3-carbonitrile]
14 | 81 | 3 |  |  | CCCN1CCC(n2cc([C@@H](Nc3cc(Cl)c4ncc(C#N)c(Nc5ccc(F)c(Cl)c5)c4c3)c3cncs3)nn2)CC1 [Example 373, (R)-8-chloro-4-((3-chloro-4-fluorophenyl)amino)-6-(((1-(1-propylpiperidin-4-yl)-1H-1,2,3-triazol-4-yl)(thiazol-5-yl)methyl)amino)-quinoline-3-carbonitrile]
15 | 1510 | 4 |  |  | N#Cc1cnc2c(Cl)cc(N[C@H](c3cn(C4CCNCC4)nn3)c3cncs3)cc2c1Nc1ccc(F)c(Cl)c1 [Example 375, (R)-8-chloro-4-((3-chloro-4-fluorophenyl)amino)-6-(((1-(piperidin-4-yl)-1H-1,2,3-triazol-4-yl)(thiazol-5-yl)methyl)amino)quinoline-3-carbonitrile]
16 | > 1000 |  |  | 182 | N#Cc1cnc2c(Cl)cc(NC(c3cccnc3)c3ccccn3)cc2c1Nc1ccc(F)c(Cl)c1 (stereo not drawn) [Example 376, 8-chloro-4-((3-chloro-4-fluorophenyl)amino)-6-((pyridin-2-yl(pyridin-3-yl)methyl)amino)-quinoline-3-carbonitrile]
17 | > 1000 |  |  | 398 | N#Cc1cnc2c(Cl)cc(NC(c3ccccn3)c3ccccn3)cc2c1Nc1ccc(F)c(Cl)c1 [Example 377, 8-chloro-4-((3-chloro-4-fluoro-phenyl)amino)-6-((di(pyridin-2-yl)methyl)amino)quinoline-3-carbonitrile]
18 | 168 | 2 |  |  | CCN1CCC(n2cc([C@@H](Nc3cc(Cl)c4ncc(C#N)c(Nc5ccc(F)c(Cl)c5)c4c3)c3cncs3)nn2)CC1 [Example 378, (R)-8-chloro-4-((3-chloro-4-fluoro-phenyl)amino)-6-(((1-(1-ethylpiperidin-4-yl)-1H-1,2,3-triazol-4-yl)(thiazol-5-yl)methyl)amino)quinoline-3-carbonitrile]
